From patent US9079853B2, “Isatin compounds, compositions and methods for treatment of degenerative diseases and disorders” (MUSC FOUNDATION FOR RESEARCH DEVELOPMENT, priority 2013, dated 2015)

Legend:
[1] = tested on: retinal explants from Ser344ter-3 rats; test: S334ter assay, retinal explants; format: cell-based, rat; conditions: P12-P17 retinal explants
Protocol: To further evaluate neuroprotection, certain compounds of the invention were evaluated with the Ser344ter-3 rats in which a truncation in the rhodopsin […] eliminated a phosphorylation site. It has been shown that the Ser344ter-3 rhodopsin was extensively misfolded causing induction of ER stress genes BiP and CHOP (Kroeger 2012). […] Statistically significant protection against loss of photoreceptor cell nuclei was observed (Table 5 below).

[2] = tested on: 661W or C6 cells; test: XF FCCP-uncoupled oxygen consumption rate assay (IBMX challenge); format: cell-based; conditions: 1 h pretreatment, 600 μM IBMX, 24 h, read-out: XF FCCP OCR (% Ctrl); for activity at 0.001 µM: compound 1 nM;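 as to all read-outs here: values normalized to the vehicle control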
Protocol: The XF FCCP-uncoupled oxygen consumption rate assay assesses mitochondrial capacity by measuring cellular respiration. It was shown that the maximum FCCP-uncoupled oxygen consumption rate (OCR) was a good estimate of maximal mitochondrial capacity (Beeson 2010) and that IBMX treatment of 661W or C6 cells for 24 h caused a loss in maximal uncoupled OCR (Perron 2013). Thus, cells were pretreated with the exemplified compounds for 1 h, added 600 μM IBMX and then measured the uncoupled rate after 24 h. In brief, the OCR measurements were performed using a Seahorse Bioscience XF instrument (Seahorse Bioscience, Billerica, Md.), as previously published (Perron 2013). O2 leakage through the plastic sides and bottom of the plate was accounted for using the AKOS algorithm in the XF software package. Cells were plated on 96- or 24-well custom plates designed for use in the XF and grown to confluency in DMEM+5% FBS (48 h). The medium was then replaced with DMEM+1% FBS for 24 h, along with any treatments.

[3] = tested on: rd1 mouse retina organ cultures; test: Retinal degeneration assay, rd1 mouse retinal explants; format: cell-based; conditions: rows of photoreceptors in ONL, explants cultured 11 days
Protocol: It was reasoned that the compounds' activities would enable them to protect against loss of photoreceptors in retinal degenerative animal models. As a translational bridge between the cell line-based assays and in vivo animal studies, mouse retina organ cultures were utilized. These retinal explants were a powerful ex vivo screening tool, which allowed the testing of photoreceptor cell survival within the retinal network, and the effects of a specific compound were tested like in an in vitro system, without systemic interference. In this assay, the rd1 mouse was utilized. The genotype of the rd1 mouse has a mutation in the β-subunit of the phosphodiesterase gene. […] The genetic deficit and the retinal pathology were very similar to that observed in the patients with βPDE-dependent RP. In these mice, rod photoreceptor degeneration started after postnatal day 10 (P10), progressing rapidly, such that at P21, only 1-2 rows of photoreceptor remained, mainly representing cones. Finally, the rd1 mouse retina was amenable to culturing, replicating both retinal development and degeneration, following the same time course as in vivo. The retinal explants were cultured for 11 days ex vivo. […] At the end of the experiments, tissues were fixed, sectioned and stained with 0.1% toluidine and the numbers of rows of photoreceptors remaining in the outer nuclear layer (ONL) were counted.

[4] = tested on: Balb/c mice; test: Light model assay (constant light damage, eyedrops); format: in vivo, mouse; conditions: continuous light 7 days, rows of photoreceptors
Text: The light model assay is generally accepted as a model of age related macular degeneration (AMD). […] In particular, oxidative damage has been detected by immunohistochemistry, detecting the presence of oxidized and tyrosine-phosphorylated proteins as well as the upregulation of endogenous antioxidants such as thioredoxin and glutathione peroxidase. […] Additional indirect evidence for the involvement of oxidative stress in photoreceptor degeneration has been provided by treatment of photodamaged retinas with antioxidants such as dimethylthiourea, or the treatment of N-methyl-N-nitrosourea (MNU)-challenged rats with the antioxidant DHA.
The light model assay was used to further test the therapeutic potential of the compounds of the invention. Photoreceptors from albino animals are very sensitive to constant light, lacking the RPE pigment to protect them. Thus, Balb/c mice were exposed to continuous light for 7 days, which caused loss of about 50% of the photoreceptor cells as measured via histology. To test the potential therapeutic efficacy, eyedrops were formulated in 0.1% Bij 35 in […], applied once or twice daily throughout the period of light exposure, and their effect assessed on the light-induced degeneration of photoreceptor cells morphologically and electrophysiologically, 10 days after the onset of the CL exposure.

[5] = tested on: 661W or C6 cells; test: MTT assay, protection against calcium-ionophore A23187; format: cell-based; conditions: 1 μM A23187, 24 h
Protocol: The compound 3-(4,5-Dimethylthiazol-2-yl)-2,5-diphenyltetrazolium bromide (MTT) is a tetrazolium ion that is reduced to a blue formazan dye via several families of NAD(P)H-dependent oxidoreductases. Formation of the formazan dye from MTT or other related tetrazolium dyes are commonly used as a viability assay even though, in fact, the assay is a metabolic capacity assay.
In this assay, 661W or C6 cells were maintained in DMEM supplemented with 10% FBS. 100 μL of 70,000 cells/mL cells were seeded into each well of 96 well plates using DMEM supplemented with 5% FBS. Cells were then allowed to grow to confluency for 48 hours. The compounds of the invention were added in 2 μL media and calcium-ionophore A23187 was then added in 1 μL for a final concentration of 1 μM and after 24 h, 20 μL of […] MTT were added to each well and the cells were incubated for another 4 h after which 100 μL of 1% SDS in 0.01M aqueous HCl were added to each well and the plates were incubated overnight. Absorbance was measured at […] (background correction). The 1 μM ionophore A23187 caused about 50% loss in MTT signal at 24 h. Protection was calculated as the increase in absorbance of treatment groups normalized to the vehicle control.

Compound | LD Protection (# of rows) ([4]; 1 mM eyedrops once per day) | activity at 0.001 µM [2] [%] | MTT, % protection ([5]; compound 1 nM) | LD Protection (# of rows) ([4]; 100 μM eyedrops once per day) | also measured
CCCCN1C(=O)C(O)(CC(=O)c2ccccn2)c2ccccc21 (stereo not shown) [Example 12, 1-butyl-3-hydroxy-3-(2-oxo-2-(pyridin-2-yl)ethyl)indolin-2-one] | 5.33 # of rows | – | – | – | s334ter protection (# of rows) ([1]; 1 μM): 1 μM 3.86 # of rows; activity at 10 µM ([2]; compound 10uM): 73%; rd1 protection (# of rows) ([3]; 5 μM): 5 μM, 3.19 # of rows; MTT, % protection ([5]; compound 10 μM): 67%,
CCCN1C(=O)C(O)(CC(=O)c2c[nH]c3ccccc23)c2cc(Cl)ccc21 (stereo not shown) [Example 31, 3-(2-(1H-indol-3-yl)-2-oxoethyl)-5-chloro-3-hydroxy-1-propylindolin-2-one] | 5.94 # of rows | 74 | 64.2%, | – | rd1 protection (# of rows) ([3]; 10 nM): 10 nM, 2.53 # of rows
CCN1C(=O)C(O)(Cc2cc(OC)c(OC)c(OC)c2)c2cc(C)ccc21 (stereo not shown) [Example 34, 1-ethyl-3-hydroxy-5-methyl-3-(3,4,5-trimethoxybenzyl)indolin-2-one] | – | 94 | 82.4%, | – | LD Protection (# of rows) ([4]; 10 μM eyedrops once per day): 5.47 # of rows
COc1ccc(O)c(CC2(OC(=O)c3ccccc3)C(=O)N(CCCC(C)C)c3ccc(C)cc32)c1 (stereo not shown) [Example 58, 3-(2-hydroxy-5-methoxybenzyl)-5-methyl-1-(4-methylpentyl)-2-oxoindolin-3-yl benzoate] | – | 97 | – | 6.06 # of rows | s334ter protection (# of rows) ([1]; 50 nM): 50 nM, 2.73 # of rows; MTT, % protection ([5]; compound 100 nM): 100%,
CCN1C(=O)C(Cc2cccc(OC)c2O)(OC(=O)c2ccccc2)c2cc(Cl)ccc21 (stereo not shown) [Example 59, 5-chloro-1-ethyl-3-(2-hydroxy-3-methoxybenzyl)-2-oxoindolin-3-yl benzoate] | – | 92 | – | 5.98 # of rows | MTT, % protection ([5]; compound 1 μM): 117.4%,
